Data on eight compounds can be found in BindingDB's records for doi:10.1021/ml5001867 (Abbvie, 2014).

This assay can be described thus: Inhibition of BCL-XL (unknown origin) expressed in mcl-1 deficient MEF assessed as induction of cell killing incubated for 48 hrs in presence of 10% FBS by Cell titerGlo reagent based assay. In general terms: Cellular ATP, detected with luciferase, serves as a proxy for viable cell number.
Broadly, the EC50 is the concentration giving half of the maximal effect. As to `O=C(Nc1nc2ccccc2s1)c1cccc2c1CN(c1nc(C(=O)O)c(CCCOc3cccc(-n4ncc5cncnc54)c3)s1)CC2`, the EC50 is > 5000 nM.

With `O=C(Nc1nc2ccccc2s1)c1cccc2c1CN(c1nc(C(=O)O)c(CCOc3cccc(-n4ncc5cncnc54)c3)s1)CC2`, the EC50 is > 5000 nM.

Consider `CN1CCN(CCCNc2ncnc3c2cnn3-c2ccc(OCCCc3sc(N4CCc5cccc(C(=O)Nc6nc7ccccc7s6)c5C4)nc3C(=O)O)cc2)CC1`, for which the EC50 was 20 nM.

`CN(C)CCCNc1ncnc2c1cnn2-c1ccc(OCCCc2sc(N3CCc4cccc(C(=O)Nc5nc6ccccc6s5)c4C3)nc2C(=O)O)cc1`: the EC50 was determined as 10 nM.

In the case of `O=C(Nc1nc2ccccc2s1)c1cccc2c1CN(c1nc(C(=O)O)c(CCCOc3ccc(-n4cccn4)cc3)s1)CC2`, the EC50 amounted to 640 nM.

For `O=C(Nc1nc2ccccc2s1)c1cccc2c1CN(c1nc(C(=O)O)c(CCCCOc3ccc(-n4ncc5cncnc54)cc3)s1)CC2`, the EC50 was > 5000 nM.

As for `O=C(Nc1nc2ccccc2s1)c1cccc2c1CN(c1nc(C(=O)O)c(CCCOc3ccc(-n4ncc5cncnc54)cc3)s1)CC2`, the 50% effective concentration (EC50) was 60 nM.

As for `O=C(Nc1nc2ccccc2s1)c1cccc2c1CN(c1nc(C(=O)O)c(CCOc3ccc(-n4ncc5cncnc54)cc3)s1)CC2`, the EC50 is > 5000 nM.
